US20050059710A1, “Diphenylamino ketone derivatives as MEK inhibitors” (Pfizer Inc, priority 2003, published 2005)

What was measured:
MEK [1] = test: Cellular assay for MEK inhibition: ERK phosphorylation in C26 cells (C26CPA1); type: cell-based; conditions: inhibition of ERK phosphorylation, murine colon 26 (C26) carcinoma cells, one hour at 37° C.
Description: (§1) Cellular Assay for Measuring MEK Inhibition
(§2) MEK inhibitors were evaluated by determining their ability to inhibit phosphorylation of MAP kinase (ERK) in murine colon 26 (C26) carcinoma cells. Since ERK1 and ERK2 represent the only known substrates for MEK1and MEK2, the measurement of inhibition of ERK phosphorylation in cells provides direct read out of cellular MEK inhibition by the compounds of the invention. Detection of phosphorylation of ERK was carried out either by Western blot or ELISA format. Briefly, the assays involve treatment of exponentially growing C26 cells with varying concentrations of the test compound (or vehicle control) for one hour at 37° C. For Western blot assay, cells were rinsed free of compound/vehicle and lysed in a solution containing 70 mM NaCl, 50 mM glycerol phosphate, 10 mM HEPES, pH 7.4, 1% Triton X-100, 1 mM Na3VO4, 100 μM PMSF, 10 μM leupeptin and 10 μM pepstatin. Supernatants were then subjected to gel electrophoresis and hybridized to a primary antibody recognizing dually phosphorylated ERK1 and ERK2. To evaluate total MAPK levels, blots were subsequently ‘stripped’ and re-probed with a 1:1 mixture of polyclonal antibodies recognizing unphosphorylated ERK1 and ERK2. For pERK ELISA assay, pERK TiterZyme Enzyme immunometric Assay kits were acquired from Assay Designs, Inc (Ann Arbor, Mich.). […]

MEK [2] = test: Cellular assay for MEK inhibition: ERK phosphorylation in C26 cells, pERK ELISA format (C26ELSA); type: cell-based; conditions: inhibition of ERK phosphorylation, murine colon 26 (C26) carcinoma cells, one hour at 37° C.
Description: as §1, §2

| IC50 (MEK [1]) | melting point | IC50 (MEK [2]) | Compound |
| --- | --- | --- | --- |
| 0.287 µM | 127 °C | – | Cc1coc(C(=O)c2ccc(F)c(F)c2Nc2ccc(I)cc2F)n1 [Example 5, [3,4-Difluoro-2-(2-fluoro-4-iodo-phenylamino)-phenyl]-(4-methyl-oxazol-2-yl)-methanone] |
| – | 161 °C | – | C#Cc1ccc(Nc2c(C(=O)c3nccs3)ccc(F)c2F)c(F)c1 [Example 3, [2-(4-Ethynyl-2-fluoro-phenylamino)-3,4-difluoro-phenyl]-thiazol-2-yl-methanone] |
| – | 109 to 111 °C | – | C#Cc1ccc(Nc2c(C(=O)c3ccccn3)ccc(F)c2F)c(F)c1 [Example 2, [2-(4-Ethynyl-2-fluoro-phenylamino)-3,4-difluoro-phenyl]-pyridin-2-yl-methanone] |
| 0.0065 µM | 128 to 128.5 °C | 0.02 µM | O=C(CO)c1ccc(F)c(F)c1Nc1ccc(I)cc1F [Example 1, 1-[3,4-Difluoro-2-(2-fluoro-4-iodo-phenylamino)-phenyl]-2-hydroxy-ethanone] |
| – | 78 to 80 °C | – | C#Cc1ccc(Nc2c(C(C)=O)ccc(F)c2F)c(F)c1 [Example 10, 1-[2-(4-Ethynyl-2-fluoro-phenylamino)-3,4-difluoro-phenyl]-ethanone] |
| – | 166 °C | – | C#Cc1ccc(Nc2c(C(=O)c3nccn3C)ccc(F)c2F)c(F)c1 [Example 4, [2-(4-Ethynyl-2-fluoro-phenylamino)-3,4-difluoro-phenyl]-(1-methyl-1H-imidazol-2-yl)-methanone] |
